This note sets out measurements from patent EP4321514B1, “COMPOUND HAVING ALK INHIBITORY ACTIVITY, PREPARATION METHOD THEREFOR AND USE THEREOF” (CGeneTech (Suzhou, China) Co., Ltd., priority 2021, dated 2022).

In general, IC50 refers to the midpoint of a concentration-inhibition curve. Lower therefore signals inhibition by little substance.

In test [1] the test system is human anaplastic large cell lymphoma cell Karpas 299. In words: ALK gene fusion cell proliferation inhibition test (CCK-8). The test is classed as cell-based. The note with it: 72 hours incubation, CCK-8, absorbance at 450 nm. The method, then: The 96-well culture plate was placed in a 5 % carbon dioxide incubator at 37 °C to be cultured overnight. A test compound was formulated into a 10 mM storage solution with DMSO, and the 10mM storage solution was gradually diluted with DMSO at a dilution ration of 1:4 to obtain 9 concentration gradients of solutions of the test compound. The test compound was diluted with culture medium to 5 times the set final concentration of corresponding action, and the diluted solution of the test compound was added at 25 µL/well to corresponding cell wells according to the set compound layout, and then incubated in a 5 % carbon dioxide incubator at 37 °C for 72 hours. After 72 hours, 10 µL of CCK-8 was added into a cell culture medium, and the culture solution was sucked from adherent cells, then a freshly prepared CCK-8 detection solution was added and the cells were incubated in a 37 °C incubator for 1-4 hours. The absorbance at 450 nm wavelength on the SpectraMax i3X Microplate Reader was measured after gently shaking, with the absorbance at 650 nm as a reference.

Another test has as its target T1, ALK kinase (Homo sapiens, UniProt Q9UM73).
T1 construct: purchased Thermo Scientific
In words: ALK kinase inhibition test. The test is classed as biochemical. The note with it: 0.4 ng/well ALK kinase, 5 µM ATP, fluorescence 665 nm/615 nm. As to the method: The inhibitory activity of the compound in the present application on ALK kinase will be determined through in vitro tests, which can be represented by IC50 value.
4 µL of the diluted solution of the test compound and 2 µL of 0.4 ng/well ALK kinase solution (Thermo Scientific) were added into reaction wells in turn, incubated for 10 min at room temperature, then 4 µL of 0.7 µM biotin-labeled tyrosine kinase substrate and 5 µM ATP solution were added to start the kinase reaction.
Software Graphpad Prism 6 was used to fit an IC50 curve and calculate an IC50 value.

T1 sequence (Q9UM73 19-1620): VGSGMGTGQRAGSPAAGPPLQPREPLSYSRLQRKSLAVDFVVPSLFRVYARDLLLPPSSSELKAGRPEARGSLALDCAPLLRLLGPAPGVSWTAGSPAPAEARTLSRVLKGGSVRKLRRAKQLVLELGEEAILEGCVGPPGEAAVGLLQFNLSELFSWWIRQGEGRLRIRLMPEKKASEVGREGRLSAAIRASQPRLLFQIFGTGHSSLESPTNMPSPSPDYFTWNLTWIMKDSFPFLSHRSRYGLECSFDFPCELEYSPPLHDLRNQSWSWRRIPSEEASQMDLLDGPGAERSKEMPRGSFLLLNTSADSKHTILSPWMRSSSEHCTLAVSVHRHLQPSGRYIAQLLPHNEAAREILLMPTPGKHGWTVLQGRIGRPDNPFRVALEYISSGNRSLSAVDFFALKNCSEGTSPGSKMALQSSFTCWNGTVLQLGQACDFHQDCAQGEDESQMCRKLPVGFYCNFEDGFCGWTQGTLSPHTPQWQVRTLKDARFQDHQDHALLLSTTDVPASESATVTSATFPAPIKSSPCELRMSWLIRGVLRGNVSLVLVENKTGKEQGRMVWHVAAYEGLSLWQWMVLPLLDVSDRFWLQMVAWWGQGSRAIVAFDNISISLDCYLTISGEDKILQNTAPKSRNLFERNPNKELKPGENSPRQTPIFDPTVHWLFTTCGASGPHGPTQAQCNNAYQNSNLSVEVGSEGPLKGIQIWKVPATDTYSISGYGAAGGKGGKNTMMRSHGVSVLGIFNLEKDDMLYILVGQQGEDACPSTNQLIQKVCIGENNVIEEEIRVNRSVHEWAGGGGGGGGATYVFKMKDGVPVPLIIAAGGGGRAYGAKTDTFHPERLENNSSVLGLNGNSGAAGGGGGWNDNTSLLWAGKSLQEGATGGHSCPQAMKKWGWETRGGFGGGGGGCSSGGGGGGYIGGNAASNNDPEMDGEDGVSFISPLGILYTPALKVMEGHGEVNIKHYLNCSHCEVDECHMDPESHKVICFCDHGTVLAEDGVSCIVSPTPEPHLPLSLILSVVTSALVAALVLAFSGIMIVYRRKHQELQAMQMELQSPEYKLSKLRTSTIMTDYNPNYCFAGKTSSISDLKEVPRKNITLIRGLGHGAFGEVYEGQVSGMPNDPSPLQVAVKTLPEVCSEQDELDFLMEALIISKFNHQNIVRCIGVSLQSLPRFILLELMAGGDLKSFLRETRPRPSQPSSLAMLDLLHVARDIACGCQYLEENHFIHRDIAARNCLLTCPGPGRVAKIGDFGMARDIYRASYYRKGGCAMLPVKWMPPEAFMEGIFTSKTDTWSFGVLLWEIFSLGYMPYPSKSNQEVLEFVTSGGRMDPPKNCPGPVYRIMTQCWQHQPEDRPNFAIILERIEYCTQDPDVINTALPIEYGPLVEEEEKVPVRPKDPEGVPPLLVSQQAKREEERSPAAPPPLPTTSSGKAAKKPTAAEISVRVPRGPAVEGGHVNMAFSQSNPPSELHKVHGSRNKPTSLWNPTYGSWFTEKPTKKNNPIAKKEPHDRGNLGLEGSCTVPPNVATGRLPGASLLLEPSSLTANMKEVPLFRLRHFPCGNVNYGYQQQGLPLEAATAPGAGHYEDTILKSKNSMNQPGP

With `C#Cc1ccc2c3c([nH]c2c1)C(C)(C)c1cc(N2CCC(N4CCOCC4)CC2)c(CC)cc1C3=O` [Example E1, 9-ethyl-3-ethynyl-6,6-dimethyl-8-(4-morpholinopiperidin-1-yl)-5,6-dihydro-11H-benzo[b]carbazol-11-one], the IC50 in test [1] came to 7.34 nM; at ALK kinase, 5.09 nM.

Turning to `C#Cc1ccc2c3c([nH]c2c1)C(C)(C)c1cc(N2CCN(C)CC2)c(CC)cc1C3=O` [Example E2, 9-ethyl-3-ethynyl-6,6-dimethyl-8-(4-methylpiperazin-1-yl)-5,6-dihydro-11H-benzo[b]carbazol-11-one], the figures for the IC50 (in test [1]; against ALK kinase) were 18.1 nM and 7.38 nM, respectively.

In the case of `C#Cc1ccc2c3c([nH]c2c1)C(C)(C)c1cc(N2CCN(C4CC4)CC2)c(CC)cc1C3=O` [Example E3, 8-(4-cyclopropylpiperazin-1-yl)-9-ethyl-3-ethynyl-6,6-dimethyl-5,6-dihydro-11H-benzo[b]carbazol-11-one], the IC50 was found to be 144 nM in test [1] and 37.8 nM at ALK kinase.

With `C#Cc1ccc2c3c([nH]c2c1)C(C)(C)c1cc(N2CCC(N4CCC4)CC2)c(CC)cc1C3=O` [Example E4, 8-(4-(azetidin-1-yl)piperidin-1-yl)-9-ethyl-3-ethynyl-6,6-dimethyl-5,6-dihydro-11H-benzo[b]carbazol-11-one], the IC50 in test [1] was 32.6 nM; at ALK kinase, 6.35 nM.

`C#Cc1ccc2c3c([nH]c2c1)C(C)(C)c1cc(N2CCC(N4CCCC4)CC2)c(CC)cc1C3=O` [Example E5, 9-ethyl-3-ethynyl-6,6-dimethyl-8-(4-(pyrrolidin-1-yl)piperidin-1-yl)-5,6-dihydro-11H-benzo[b]car bazol-11-one]: the figures for the IC50 (in test [1]; on ALK kinase) were 24.9 nM and 13.8 nM, respectively.

Consider `C#Cc1ccc2c3c([nH]c2c1)C(C)(C)c1cc(N2CCC(N(C)C)CC2)c(CC)cc1C3=O` [Example E6, 8-(4-(dimethylamino)piperidin-1-yl)-9-ethyl-3-ethynyl-6,6-dimethyl-5,6-dihydro-11H-benzo[b]car bazol-11-one], for which the IC50 in test [1] was 107 nM; on ALK kinase it was 21 nM.

As for `C#Cc1ccc2c3c([nH]c2c1)C(C)(C)c1cc(N2CCNCC2)c(CC)cc1C3=O` [Example E7, 9-ethyl-3-ethynyl-6,6-dimethyl-8-(piperazin-1-yl)-5H-benzo[b]carbazol-11(6H)-one], the IC50 is 40.3 nM in test [1] and 7.41 nM on ALK kinase.

`C#Cc1ccc2c3c([nH]c2c1)C(C)(C)c1cc(C2CCNCC2)c(CC)cc1C3=O` [Example E8, 9-ethyl-3-ethynyl-6,6-dimethyl-8-(piperidin-4-yl)-5,6-dihydro-11H-benzo[b]carbazol-11-one]: the concentration for half-maximal inhibition (IC50) in test [1] turned out to be 109 nM; against ALK kinase, 6.6 nM.

`C#Cc1ccc2c3c([nH]c2c1)C(C)(C)c1cc(C2CCN(C)CC2)c(CC)cc1C3=O` [Example E9, 9-ethyl-3-ethynyl-6,6-dimethyl-8-(1-methylpiperidin-4-yl)-5,6-dihydro-11H-benzo[b]carbazol-11-one]: the IC50 in test [1] was determined as 54.2 nM; against ALK kinase, 8.11 nM.

On to `C#Cc1ccc2c3c([nH]c2c1)C(C)(C)c1cc(C2CCN(C4CC4)CC2)c(CC)cc1C3=O` [Example E10, 8-(1-cyclopropylpiperidin-4-yl)-9-ethyl-3-ethynyl-6,6-dimethyl-5,6-dihydro-11H-benzo[b]carbazol-11-one], for which the values for the IC50 (in test [1]; on ALK kinase) were 208 nM and 20.5 nM, respectively.

On to `C#Cc1ccc2c3c([nH]c2c1)C(C)(C)c1cc(N2CCC(N4CCN(C5CC5)CC4)CC2)c(CC)cc1C3=O` [Example E11, 8-(4-(4-cyclopropylpiperazin-1-yl)piperidin-1-yl)-9-ethyl-3-ethynyl-6,6-dimethyl-5,6-dihydro-11 H-benzo[b]carbazol-11-one], for which the IC50 in test [1] was 186 nM; on ALK kinase it was 59 nM.
